Assay results: patent US9555038B2, “Heterocycle-substituted tetracyclic compounds and methods of use thereof for the treatment of viral diseases” (Merck Sharp & Dohme Corp., priority 2013, dated 2017)
Read-outs that look alike come from different tables or passages of the source.

Tests used:
HCV replicon 1A = experiment: Cell-based HCV Replicon Assay A, replicon 1A
How it was run: (§1)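 Replicon cells were seeded at 2000 cells/well with test compound in 10 serial dilutions, starting at 333.3 nM to 1.667 nM, in 0.5% DMSO and 5% FBS. On day 3, cells were washed and lysed, and replicon RNA was quantified by multiplex TaqMan RT-PCR normalised to cyclophilin.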

HCV replicon 1AQ30D = experiment: Cell-based HCV Replicon Assay B, replicon 1AQ30D
How it was run: (§2)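 Replicon cells seeded in 5% FBS; compounds added 24 h later, then 3 days' incubation. Replicon RNA quantified by real-time RT-PCR with genotype-specific primers/probes (NS5B amplicon for 1b). EC50 = concentration raising CT by 1 over projected baseline.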

HCV replicon 1AY93H = experiment: Cell-based HCV Replicon Assay A, replicon 1AY93H
How it was run: as §1

HCV replicon 2B = experiment: Cell-based HCV Replicon Assay A, replicon 2B
How it was run: as §1

HCV replicon 1B = experiment: Cell-based HCV Replicon Assay B, replicon 1B
How it was run: as §2

[1] = Hepatitis C virus, read-out: 1A Q30D IC50 (nM), replicon 1AQ30D
[2] = read-out: 1A Y93H IC50, replicon 1AY93H
[3] = read-out: 1A Q30D IC50, replicon 1AQ30D
[4] = Hepatitis C virus, read-out: 1A Y93H IC50 (nM), replicon 1AY93H
[5] = Hepatitis C virus, read-out: 2B IC50 (nM), replicon 2B

Structure (SMILES)	IC50 (HCV replicon 1A; Hepatitis C virus) [pM]	IC50 (HCV replicon 1AQ30D; [1]) [nM]	IC50 (HCV replicon 1AY93H; [2]) [nM]	IC50 (HCV replicon 2B; read-out: 2B IC50, replicon 2B) [nM]	IC50 (HCV replicon 1B; Hepatitis C virus) [pM]	IC50 (HCV replicon 1A) [pM]	IC50 (HCV replicon 1AQ30D; [3]) [nM]	IC50 (HCV replicon 1B) [pM]	IC50 (HCV replicon 1AY93H; [4]) [nM]	IC50 (HCV replicon 2B; [5]) [nM]
COC(=O)N[C@H](C(=O)N1CCC[C@H]1c1ncc(-c2cc(F)c3c(c2)OC(c2cnc(-c4ccc(Cl)cc4)s2)n2c-3cc3cc(-c4cnc([C@@H]5CCCN5C(=O)[C@@H](NC(=O)OC)C(C)C)[nH]4)ccc32)[nH]1)C(C)C (single isomer, unassigned) [Compound 53]	1.6	0.07	0.0022	0.004	1					
COC(=O)NC(C(=O)N1CCC[C@H]1c1ncc(-c2ccc3c(c2)cc2n3C(c3cnc(C(C)C)s3)Oc3cc(-c4cnc([C@@H]5CCCN5C(=O)[C@@H](NC(=O)OC)C(C)C)[nH]4)cc(F)c3-2)[nH]1)C1C[C@@H](C)O[C@@H](C)C1 (single isomer, unassigned) [Compound 57]		0.028	0.002	0.005	1	1.6				
CCCc1ncc(C2Oc3cc(-c4cnc([C@@H]5CCCN5C(=O)[C@@H](NC(=O)OC)C(C)C)[nH]4)cc(F)c3-c3cc4cc(-c5cnc([C@@H]6CCCN6C(=O)C(NC(=O)OC)C6CCOC(C)(C)C6)[nH]5)ccc4n32)s1 (single isomer, unassigned) [Compound 59]			0.132	0.133		2.6	0.762	3		
CCCc1ncc(C2Oc3cc(-c4cnc([C@@H]5CCCN5C(=O)[C@@H](NC(=O)OC)C(C)C)[nH]4)cc(F)c3-c3cc4cc(-c5cnc([C@@H]6CCCN6C(=O)C(NC(=O)OC)C6CCOC(C)(C)C6)[nH]5)ccc4n32)s1 (single isomer, unassigned) [Compound 61]			0.012	0.006		3.3	0.07	1.7		
COC(=O)NC(C(=O)N1[C@@H]2C[C@@H]2C[C@H]1c1ncc(-c2ccc3c(c2)cc2n3C(c3ncc(C4CC4)s3)Oc3cc(-c4cnc([C@@H]5CCCN5C(=O)[C@@H](NC(=O)OC)C(C)C)[nH]4)cc(F)c3-2)[nH]1)C1C[C@@H](C)O[C@@H](C)C1 (single isomer, unassigned) [Compound 65]		0.095	0.0081	0.044	3	2.1				
COC(=O)NC(C(=O)N1CCC[C@H]1c1ncc(-c2ccc3c(c2)cc2n3C(c3cnc(C4CCC4)s3)Oc3cc(-c4cnc([C@@H]5CCCN5C(=O)[C@@H](NC(=O)OC)C(C)C)[nH]4)cc(F)c3-2)[nH]1)C1C[C@@H](C)O[C@@H](C)C1 (single isomer, unassigned) [Compound 66]	2.3		0.0021	0.003	2		0.018			
COC(=O)NC(C(=O)N1CCC[C@H]1c1ncc(-c2ccc3c(c2)cc2n3C(c3cnc(C4CCC4)s3)Oc3cc(-c4cnc([C@@H]5CCCN5C(=O)[C@@H](NC(=O)OC)C(C)C)[nH]4)cc(F)c3-2)[nH]1)C1C[C@@H](C)O[C@@H](C)C1 (single isomer, unassigned) [Compound 67]			0.225	0.056		2	1.39	2		
COC(=O)NC(C(=O)N1CCC[C@H]1c1ncc(-c2ccc3c(c2)c(F)c2n3C(c3cnc(C4CC4)s3)Oc3cc(-c4cnc([C@@H]5CCCN5C(=O)[C@@H](NC(=O)OC)C(C)C)[nH]4)cc(F)c3-2)[nH]1)C1CCOC(C)(C)C1 (single isomer, unassigned) [Compound 72]	2.9	0.099			2.4				0.006	0.005
COC(=O)NC(C(=O)N1CCC[C@H]1c1ncc(-c2ccc3c(c2)cc2n3C(c3cnc(C(C)(C)O)s3)Oc3cc(-c4cnc([C@@H]5CCCN5C(=O)[C@@H](NC(=O)OC)C(C)C)[nH]4)cc(F)c3-2)[nH]1)C1C[C@@H](C)O[C@@H](C)C1 (single isomer, unassigned) [Compound 74]		0.021	0.0053	0.005		3.6		4		
COC(=O)NC(C(=O)N1CCC[C@H]1c1ncc(-c2ccc3c(c2)cc2n3C(c3nc(C(F)(F)F)cs3)Oc3cc(-c4cnc([C@@H]5CCCN5C(=O)[C@@H](NC(=O)OC)C(C)C)[nH]4)cc(F)c3-2)[nH]1)C1C[C@@H](C)O[C@@H](C)C1 (single isomer, unassigned) [Compound 76]		0.422	0.0322	0.141	3	2.7				
COC(=O)N[C@H](C(=O)N1CCC[C@H]1c1ncc(-c2cc(F)c3c(c2)OC(c2cnc(-c4ccc(OC(F)(F)F)cc4)s2)n2c-3cc3cc(-c4cnc([C@@H]5CCCN5C(=O)[C@@H](NC(=O)OC)C(C)C)[nH]4)ccc32)[nH]1)C(C)C (single isomer, unassigned) [Compound 77]			0.0056	0.005	1	3.5	0.053			
COC(=O)N[C@H](C(=O)N1CCC[C@H]1c1ncc(-c2cc(F)c3c(c2)OC(c2cnc(-c4ccc(OC(F)(F)F)cc4)s2)n2c-3cc3cc(-c4cnc([C@@H]5CCCN5C(=O)[C@@H](NC(=O)OC)C(C)C)[nH]4)ccc32)[nH]1)C(C)C (single isomer, unassigned) [Compound 78]			0.165	0.193		1.4	1.86	1		
CCc1ncc(C2Oc3cc(-c4cnc([C@@H]5CCCN5C(=O)[C@@H](NC(=O)OC)C(C)C)[nH]4)cc(F)c3-c3cc4cc(-c5cnc([C@@H]6CCCN6C(=O)[C@@H](NC(=O)OC)C(C)C)[nH]5)ccc4n32)s1 (single isomer, unassigned) [Compound 81]	2.7	0.384	0.019	0.027	2					
CCc1ncc(C2Oc3cc(-c4cnc([C@@H]5CCCN5C(=O)[C@@H](NC(=O)OC)C(C)C)[nH]4)cc(F)c3-c3cc4cc(-c5cnc([C@@H]6C[C@H]7C[C@H]7N6C(=O)[C@@H](CC(=O)OC)C(C)C)[nH]5)ccc4n32)s1 (single isomer, unassigned) [Compound 83]	3	0.12	0.0067	0.048	3					
COC(=O)N[C@H](C(=O)N1CCC[C@H]1c1ncc(-c2cc(F)c3c(c2)OC(c2nc4c(s2)CCCC4)n2c-3cc3cc(-c4cnc([C@@H]5CCCN5C(=O)[C@@H](NC(=O)OC)C(C)C)[nH]4)ccc32)[nH]1)C(C)C (single isomer, unassigned) [Compound 87]	2.5				864		0.068		0.0714	0.003
COC(=O)N[C@H](C(=O)N1CCC[C@H]1c1ncc(-c2cc(F)c3c(c2)OC(c2cnc(C(C)C)s2)n2c-3cc3cc(-c4cnc([C@@H]5C[C@H]6C[C@H]6N5C(=O)[C@@H](NC(=O)OC)C(C)C)[nH]4)ccc32)[nH]1)C(C)C (single isomer, unassigned) [Compound 89]	1.7	0.081			3				0.0028	0.029
CCCc1ncc(C2Oc3cc(-c4cnc([C@@H]5CCCN5C(=O)[C@@H](NC(=O)OC)C(C)C)[nH]4)cc(F)c3-c3cc4cc(-c5cnc([C@@H]6C[C@H]7C[C@H]7N6C(=O)[C@@H](NC(=O)OC)C(C)C)[nH]5)ccc4n32)s1 (single isomer, unassigned) [Compound 90]	2.5	0.09	0.0038	0.018	3					
CCc1ncc(C2Oc3cc(-c4cnc([C@@H]5CCCN5C(=O)[C@@H](NC(=O)OC)C(C)C)[nH]4)cc(F)c3-c3cc4cc(-c5cnc([C@@H]6C[C@H]7C[C@H]7N6C(=O)C(NC(=O)OC)C6CCOC(C)(C)C6)[nH]5)ccc4n32)s1 (single isomer, unassigned) [Compound 92]	3.7		0.0045	0.005	6		0.064			
CCc1ncc(C2Oc3cc(-c4cnc([C@@H]5CCCN5C(=O)[C@@H](NC(=O)OC)C(C)C)[nH]4)cc(F)c3-c3cc4cc(-c5cnc([C@@H]6C[C@H]7C[C@H]7N6C(=O)C(NC(=O)OC)C6CCOC(C)(C)C6)[nH]5)ccc4n32)s1 (single isomer, unassigned) [Compound 93]			0.0426	0.069		3.6	0.631	3		
CCc1ncc(C2Oc3cc(-c4cnc([C@@H]5CCCN5C(=O)[C@@H](NC(=O)OC)C(C)C)[nH]4)cc(F)c3-c3cc4cc(-c5cnc([C@@H]6C[C@H]7C[C@H]7N6C(=O)C(NC(=O)OC)C6CCOC(C)(C)C6)[nH]5)ccc4n32)s1 (single isomer, unassigned) [Compound 94]			0.0035	0.004		3	0.045	3		
CCc1ncc(C2Oc3cc(-c4cnc([C@@H]5CCCN5C(=O)[C@@H](NC(=O)OC)C(C)C)[nH]4)cc(F)c3-c3cc4cc(-c5cnc([C@@H]6C[C@H]7C[C@H]7N6C(=O)C(NC(=O)OC)C6CCOC(C)(C)C6)[nH]5)ccc4n32)s1 (single isomer, unassigned) [Compound 95]			0.0369	0.085		2.9	0.328	5		
